Laboratory results published in PMC6777825, “Differential scanning fluorimetric analysis of the amino-acid binding to taste receptor using a model receptor protein, the ligand-binding domain of fish T1r2a/T1r3” (PLoS ONE, 2019).
Where two headings read alike, the source gives them in different places.

Key:
medaka T1r2a/T1r3LBD = medaka T1r2a/T1r3LBD (Oryzias latipes, UniProt A0A173M094+A0A173M0G2); assay: Differential scanning fluorimetry (DSF) thermal shift ligand-binding assay; design: species or system O. latipes; settings: for ΔTm: average ± s.e.m., n = 4; for effect on thermal stability / Tm shift of T1r2a/T1r3LBD (in words): DSF, 0.1-10 mM amino acid; for Tm shift (in words): adding up to 10 mM
Protocol: The protein sample was prepared as described previously. Briefly, Drosophila S2 cells (Invitrogen) stably expressing C-terminal FLAG-tagged T1r2aLBD and T1r3LBD [11, 21] were cultured in ExpressFiveSFM (LifeTechnologies) for five days at 27 °C. The T1r2a/T1r3-LBD protein was purified from the culture medium by the use of ANTI-FLAG M2 Affinity Gel (SIGMA). The purified protein was dialyzed against the assay buffer (20 mM Tris-HCl, 300 mM NaCl, 2 mM CaCl2, pH 8.0).
The protein sample (~1 μg) was mixed with Protein Thermal Shift Dye (Applied Biosystems) and 10~10,000 μM concentration of each amino acid in 20 μL of assay buffer and loaded to a MicroAmpR Fast Optical 48-Well Reaction Plate (Applied Biosystems). Specifically, to minimize the changes of the chemical and optical condition, the amino acid solutions were prepared by the exact same buffer used for the final dialysis of the protein, followed by the re-adjustment of the pH to ~ 8.0 by addition of either NaOH or HCl, and mixed with the protein diluted with the same buffer.
Fluorescent intensity was measured by the StepOne Real-Time PCR System (Applied Biosystems). The temperature was raised from 25 °C to 99 °C with a velocity of 0.022 °C/sec. The reporter and quencher for detection were set as “ROX” and “none”, respectively. Apparent melting transition temperature (Tm) was determined by the use of the maximum of the derivatives of the melt curve (dFluorescence/dT) by Protein Thermal Shift Software version 1.3 (Applied Biosystems).
The apparent dissociation constant (Kd-app) derived from the DSF results was estimated based on Eq 1 proposed by Schellman, assuming that the unfolding of the protein is reversible: ΔTm=Tm−T0=TmT0R/ΔH^0ln(1+[L]/Kd-app) (1) where [L] is the ligand concentration; Tm and T0 are the apparent melting transition temperatures in the presence and absence of the ligand; R is the gas constant; ΔH^0 is the enthalpy of unfolding at T0, assuming that there are no significant variations under the tested conditions. If the melt curves show biphasic profiles, the second (or the right side) Tm values were adopted for calculation, as described in the Results section.
For multiple regression analyses shown in Fig 2B, the apparent Tm values determined at different ligand concentrations were fitted to Eq 1 by using KaleidaGraph (Synergy Software), assuming that the change of the dissociation constant accompanied by the Tm shift is negligible.

[1] = target: T1r2a/T1r3 full-length receptor (Oryzias latipes, UniProt A0A173M094+A0A173M0G2); assay: Ca2+-flux receptor response assay in Flip-In 293 cells stably expressing full-length T1r2a, T1r3 and Gα16-gust44; assay type: cell-based, O. latipes; settings: for ΔRFU: average ± s.e.m.
Protocol: The Ca^2+-flux assay was performed using Flip-In 293 cell line (Life Technologies) stably expressing full-length T1r2a, T1r3, and Gα16-gust44 as described previously. The response stimulated by either 5 or 10 mM amino acid was represented asΔRFU (delta relative fluorescence unit) defined as the maximum fluorescence intensity induced by the addition of the amino acid, subtracted with that of an assay buffer in the absence of amino acid.

[2] = cited from earlier work; for Hydropathy Index: hydrophobicity/hydrophilicity, ref Kyte & Doolittle, J. Mol. Biol., 157, 105 (1982); for pI: ref Handbook of Chemistry and Physics, CRC Press; for logKd_CW (polarity): transfer from cyclohexane to an aqueous solution, ref Radzicka & Wolfenden, Biochemistry, 27, 1664 (1988); for Es'c (steric effects) / πα (hydrophobicity) / HP (hydration potential): α-substituent group; for Es'c (steric effects) / πα (hydrophobicity): ref Akamatsu et al., J. Pharm. Sci., 83, 1026 (1994); for HP (hydration potential): ref Wolfenden et al., Biochemistry, 20, 849 (1981)
[3] = 5 mM amino acid, n = 6 (n = 12 for L-glutamine)
[4] = estimated from ΔRFU at 10 mM by Hill equation, ΔRFUmax 104.3, read-out: EC50-est
[5] = from response at 10 mM, log 1/EC50-est, read-out: pEC50-est (converted)
[6] = from ΔTm at 0.1 mM via Eq 1, T0 326.1 K, ΔH0 72.1 kcal mol-1, read-out: Kd-app estimated at a single ligand concentration
[7] = from ΔTm at 1 mM via Eq 1, T0 326.1 K, ΔH0 72.1 kcal mol-1, read-out: Kd-app estimated at a single ligand concentration
[8] = from ΔTm at 10 mM via Eq 1, T0 326.1 K, ΔH0 72.1 kcal mol-1, read-out: Kd-app estimated at a single ligand concentration
[9] = log 1/Kd-app, converted from S1 Table values (10 mM; L-Ala 1 mM, L-Gln 0.1 mM)
[10] = from response at 10 mM, log 1/EC50-est

Chain of medaka T1r2a/T1r3LBD (A0A173M094 entry or part of it): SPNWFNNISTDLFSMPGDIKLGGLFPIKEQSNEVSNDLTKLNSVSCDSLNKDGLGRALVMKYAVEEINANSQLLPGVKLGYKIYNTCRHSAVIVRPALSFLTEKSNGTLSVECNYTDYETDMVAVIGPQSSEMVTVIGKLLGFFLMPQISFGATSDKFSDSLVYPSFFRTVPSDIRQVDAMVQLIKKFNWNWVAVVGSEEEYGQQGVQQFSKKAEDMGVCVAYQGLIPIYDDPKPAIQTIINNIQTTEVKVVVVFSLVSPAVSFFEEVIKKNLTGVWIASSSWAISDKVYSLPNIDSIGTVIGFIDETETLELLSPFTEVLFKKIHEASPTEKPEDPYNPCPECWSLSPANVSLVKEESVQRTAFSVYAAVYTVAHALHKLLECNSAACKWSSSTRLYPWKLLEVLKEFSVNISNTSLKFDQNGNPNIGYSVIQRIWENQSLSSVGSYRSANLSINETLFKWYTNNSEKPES
Chain of medaka T1r2a/T1r3LBD (A0A173M0G2 entry or part of it): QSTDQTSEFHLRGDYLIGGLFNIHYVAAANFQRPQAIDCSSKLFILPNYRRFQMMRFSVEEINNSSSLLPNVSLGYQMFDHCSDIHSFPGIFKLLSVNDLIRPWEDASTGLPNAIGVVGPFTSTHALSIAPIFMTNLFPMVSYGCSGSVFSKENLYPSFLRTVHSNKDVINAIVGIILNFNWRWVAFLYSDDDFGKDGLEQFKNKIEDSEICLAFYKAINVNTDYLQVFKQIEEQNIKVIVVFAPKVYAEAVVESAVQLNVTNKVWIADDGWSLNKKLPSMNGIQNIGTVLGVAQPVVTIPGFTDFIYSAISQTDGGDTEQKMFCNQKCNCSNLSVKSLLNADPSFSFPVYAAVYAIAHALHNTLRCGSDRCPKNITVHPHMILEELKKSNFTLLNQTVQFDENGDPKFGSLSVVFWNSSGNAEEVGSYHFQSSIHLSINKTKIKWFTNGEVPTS
Chain of T1r2a/T1r3 full-length receptor (A0A173M0G2 entry or part of it): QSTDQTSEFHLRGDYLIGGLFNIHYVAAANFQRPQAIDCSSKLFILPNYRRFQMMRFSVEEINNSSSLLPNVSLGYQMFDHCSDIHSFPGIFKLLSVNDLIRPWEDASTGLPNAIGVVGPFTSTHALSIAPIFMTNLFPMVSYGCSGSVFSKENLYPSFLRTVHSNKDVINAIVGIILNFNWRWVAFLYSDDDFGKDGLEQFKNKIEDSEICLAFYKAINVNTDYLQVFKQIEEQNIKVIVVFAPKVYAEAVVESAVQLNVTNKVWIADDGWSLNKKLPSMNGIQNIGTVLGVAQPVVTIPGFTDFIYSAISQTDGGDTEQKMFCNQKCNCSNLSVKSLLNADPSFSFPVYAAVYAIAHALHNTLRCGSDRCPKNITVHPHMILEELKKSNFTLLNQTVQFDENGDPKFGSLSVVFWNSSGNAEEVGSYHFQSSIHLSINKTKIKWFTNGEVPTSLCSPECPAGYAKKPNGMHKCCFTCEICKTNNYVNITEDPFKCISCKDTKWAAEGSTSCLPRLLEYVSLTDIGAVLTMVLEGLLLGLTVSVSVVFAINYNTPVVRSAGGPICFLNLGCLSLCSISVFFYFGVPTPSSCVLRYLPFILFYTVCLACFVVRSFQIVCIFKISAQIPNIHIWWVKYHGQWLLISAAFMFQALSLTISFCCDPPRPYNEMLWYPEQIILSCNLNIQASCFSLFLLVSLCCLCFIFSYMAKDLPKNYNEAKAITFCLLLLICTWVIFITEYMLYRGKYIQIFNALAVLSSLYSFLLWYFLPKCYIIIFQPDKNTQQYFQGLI
Chain of T1r2a/T1r3 full-length receptor (A0A173M094 entry or part of it): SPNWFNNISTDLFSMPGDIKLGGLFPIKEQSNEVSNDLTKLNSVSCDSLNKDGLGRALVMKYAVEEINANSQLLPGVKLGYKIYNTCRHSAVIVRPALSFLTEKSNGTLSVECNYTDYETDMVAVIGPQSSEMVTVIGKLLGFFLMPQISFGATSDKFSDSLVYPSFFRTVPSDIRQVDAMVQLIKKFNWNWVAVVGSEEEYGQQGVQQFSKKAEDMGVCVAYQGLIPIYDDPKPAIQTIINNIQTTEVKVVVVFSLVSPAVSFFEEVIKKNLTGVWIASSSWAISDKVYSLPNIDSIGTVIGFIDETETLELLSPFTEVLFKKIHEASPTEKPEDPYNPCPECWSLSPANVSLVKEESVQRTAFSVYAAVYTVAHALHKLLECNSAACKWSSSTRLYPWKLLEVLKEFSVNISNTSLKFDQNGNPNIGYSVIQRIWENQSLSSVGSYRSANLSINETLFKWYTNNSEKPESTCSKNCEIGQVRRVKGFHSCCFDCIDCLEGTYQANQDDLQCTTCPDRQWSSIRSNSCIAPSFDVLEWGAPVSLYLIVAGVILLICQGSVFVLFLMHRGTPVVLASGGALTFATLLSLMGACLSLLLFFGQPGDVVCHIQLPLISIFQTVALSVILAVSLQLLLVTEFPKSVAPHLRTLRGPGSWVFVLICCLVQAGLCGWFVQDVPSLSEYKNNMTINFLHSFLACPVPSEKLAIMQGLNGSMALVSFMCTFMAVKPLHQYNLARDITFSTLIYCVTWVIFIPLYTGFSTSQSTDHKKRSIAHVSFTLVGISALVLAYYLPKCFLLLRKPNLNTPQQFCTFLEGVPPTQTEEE

Compound	ΔTm (medaka T1r2a/T1r3LBD; 0.1 mM amino acid)	ΔTm (medaka T1r2a/T1r3LBD; 1 mM amino acid)	ΔTm (medaka T1r2a/T1r3LBD; 10 mM amino acid)	ΔRFU [1, 3]	ΔRFU ([1]; 10 mM amino acid, n = 6)	EC50 [1, 4]	potency estimated from few doses (medaka T1r2a/T1r3LBD; [6])	potency estimated from few doses (medaka T1r2a/T1r3LBD; [7])	potency estimated from few doses (medaka T1r2a/T1r3LBD; [8])	pKd-app (medaka T1r2a/T1r3LBD; [9])	Hydropathy Index [2]	pI [2]	logKd_CW (polarity) [2]	Es'c (steric effects) [2]	πα (hydrophobicity) [2]	HP (hydration potential) [2]	pEC50-est [1, 10]	further results
C[C@@H](N)C(=O)O [D-Ala, D-alanine]	0.15 ± 0.05 K	-0.33 ± 0.07 K	-1.03 ± 0.09 K	7.08 ± 2.16	23.6 ± 8.83	34.2 mM												effect on thermal stability / Tm shift of T1r2a/T1r3LBD (in words) (medaka T1r2a/T1r3LBD): thermal destabilization; Tm shift (in words) (medaka T1r2a/T1r3LBD; listed as D-alanine): did not induce a significant Tm shift; Tm shift (in words) (medaka T1r2a/T1r3LBD; listed as d-alanine): no substantial Tm shifts; potency estimated from few doses (medaka T1r2a/T1r3LBD; read-out: Kd-app estimated at a single ligand concentration, from ΔTm at 0.1 mM via Eq 1, T0 326.1 K, ΔH0 72.1 kcal mol-1): 1.95 mM; full-length receptor response (in words) ([1]; 5 or 10 mM, compared to enantiomer L-alanine): significantly weak responses; EC50 ([1]; estimated from ΔRFU at 5 mM by Hill equation, ΔRFUmax 104.3, read-out: EC50-est): 68.7 mM; EC50 ([1]; from response at 5 mM, log 1/EC50-est, read-out: pEC50-est (converted)): 69.2 mM; EC50 [1, 5]: 33.9 mM
NC(=O)C[C@H](N)C(=O)O [L-Asn]	0.12 ± 0.07 K	0.38 ± 0.06 K	4.36 ± 0.99 K	0.460 ± 2.58	15.7 ± 6.13	56.3 mM	2.4 mM	7.33 mM	3 mM	2.52	-3.5	5.41	4.88	-0.98	-0.52	-9.68	1.25	
N[C@@H](CC(=O)O)C(=O)O [L-Asp, L-aspartate]	-0.06 ± 0.17 K	-1.71 ± 0.19 K	0.74 ± 0.05 K	-4.00 ± 1.10	-9.43 ± 1.83				34.9 mM		-3.5	2.77	3.27	-0.98	0.05	-10.95		effect on thermal stability / Tm shift of T1r2a/T1r3LBD (in words) (medaka T1r2a/T1r3LBD): destabilized the protein; Kd (medaka T1r2a/T1r3LBD; log 1/Kd-app, converted from S1 Table values (10 mM; L-Ala 1 mM, L-Gln 0.1 mM), read-out: pKd-app (converted)): 34.7 mM
N[C@@H](Cc1c[nH]cn1)C(=O)O [L-His]	-3.75 ± 0.33 K	1.21 ± 0.02 K	5.81 ± 0.07 K	4.72 ± 2.39	14.4 ± 6.62	62.4 mM		1.96 mM	1.67 mM	2.78	-3.2	7.59	3.34	-0.86	0.17	-10.27	1.20	
CC[C@H](C)[C@H](N)C(=O)O [L-Ile]	-0.50 ± 0.11 K	-0.57 ± 0.07 K	2.89 ± 2.40 K	2.90 ± 2.82	30.5 ± 6.26	24.2 mM			6.04 mM	2.22	4.5	6.02	-3.62	-1.81	1.43	2.15	1.62	
CC(C)C[C@H](N)C(=O)O [L-Leu]	0.08 ± 0.09 K	-0.94 ± 0.07 K	6.91 ± 0.05 K	0.933 ± 1.91	27.8 ± 5.89	27.5 mM	3.49 mM		1.11 mM	2.96			-3.62	-1.44	1.52	2.28	1.56	
NCCCC[C@H](N)C(=O)O [L-Lys, L-lysine]	-0.04 ± 0.03 K	-0.40 ± 0.17 K	-3.83 ± 0.30 K	8.68 ± 4.29	18.5 ± 8.01													effect on thermal stability / Tm shift of T1r2a/T1r3LBD (in words) (medaka T1r2a/T1r3LBD; listed as L-lysine): thermal destabilization; effect on thermal stability / Tm shift of T1r2a/T1r3LBD (in words) (medaka T1r2a/T1r3LBD; listed as lysine): destabilized the protein; EC50 ([1]; EC50-est, estimated from ΔRFU at 5 mM by Hill equation, ΔRFUmax 104.3): 55.1 mM; EC50 ([1]; EC50-est, estimated from ΔRFU at 10 mM by Hill equation, ΔRFUmax 104.3): 46.5 mM; EC50 ([1]; pEC50-est, from response at 5 mM, log 1/EC50-est): 55 mM; EC50 ([1]; pEC50-est, from response at 10 mM, log 1/EC50-est): 46.8 mM
CSCC[C@H](N)C(=O)O [L-Met]	0.45 ± 0.11 K	6.17 ± 0.05 K	8.85 ± 0.06 K	-2.52 ± 1.72	21.8 ± 7.73	37.9 mM	0.604 mM	0.146 mM	0.562 mM	3.25	1.9	5.74	-1.73	-1.03	0.99	-1.48	1.42	
N[C@@H](Cc1ccccc1)C(=O)O [L-Phe]	0.30 ± 0.04 K	1.04 ± 0.12 K	3.53 ± 0.05 K	2.08 ± 2.32	22.4 ± 5.78	36.5 mM	0.918 mM	2.37 mM	4.37 mM	2.36	2.8	5.48	-2.19	-0.9	1.78	-0.76	1.44	
O=C(O)[C@@H]1CCCN1 [L-Pro, L-proline]	-0.15 ± 0.04 K	0.04 ± 0.07 K	7.24 ± 0.02 K	2.90 ± 1.93	45.1 ± 7.06	13.2 mM												potency estimated from few doses (medaka T1r2a/T1r3LBD; read-out: Kd-app estimated at a single ligand concentration, from ΔTm at 1 mM via Eq 1, T0 326.1 K, ΔH0 72.1 kcal mol-1): 79.9 mM; potency estimated from few doses (medaka T1r2a/T1r3LBD; read-out: Kd-app estimated at a single ligand concentration, from ΔTm at 10 mM via Eq 1, T0 326.1 K, ΔH0 72.1 kcal mol-1): 0.985 mM; EC50 [1, 5]: 13.2 mM
